Measurements reported in ChEMBL document CHEMBL5223137, “Mapping Ligand Interactions of Bromodomains BRD4 and ATAD2 with FragLites and PepLites─Halogenated Probes of Druglike and Peptide-like Molecular Interactions” (J Med Chem, 2022).

Target: T1, ATPase family AAA domain-containing protein 2 (Homo sapiens, UniProt Q6PL18)
T1 sequence (Q6PL18 whole entry): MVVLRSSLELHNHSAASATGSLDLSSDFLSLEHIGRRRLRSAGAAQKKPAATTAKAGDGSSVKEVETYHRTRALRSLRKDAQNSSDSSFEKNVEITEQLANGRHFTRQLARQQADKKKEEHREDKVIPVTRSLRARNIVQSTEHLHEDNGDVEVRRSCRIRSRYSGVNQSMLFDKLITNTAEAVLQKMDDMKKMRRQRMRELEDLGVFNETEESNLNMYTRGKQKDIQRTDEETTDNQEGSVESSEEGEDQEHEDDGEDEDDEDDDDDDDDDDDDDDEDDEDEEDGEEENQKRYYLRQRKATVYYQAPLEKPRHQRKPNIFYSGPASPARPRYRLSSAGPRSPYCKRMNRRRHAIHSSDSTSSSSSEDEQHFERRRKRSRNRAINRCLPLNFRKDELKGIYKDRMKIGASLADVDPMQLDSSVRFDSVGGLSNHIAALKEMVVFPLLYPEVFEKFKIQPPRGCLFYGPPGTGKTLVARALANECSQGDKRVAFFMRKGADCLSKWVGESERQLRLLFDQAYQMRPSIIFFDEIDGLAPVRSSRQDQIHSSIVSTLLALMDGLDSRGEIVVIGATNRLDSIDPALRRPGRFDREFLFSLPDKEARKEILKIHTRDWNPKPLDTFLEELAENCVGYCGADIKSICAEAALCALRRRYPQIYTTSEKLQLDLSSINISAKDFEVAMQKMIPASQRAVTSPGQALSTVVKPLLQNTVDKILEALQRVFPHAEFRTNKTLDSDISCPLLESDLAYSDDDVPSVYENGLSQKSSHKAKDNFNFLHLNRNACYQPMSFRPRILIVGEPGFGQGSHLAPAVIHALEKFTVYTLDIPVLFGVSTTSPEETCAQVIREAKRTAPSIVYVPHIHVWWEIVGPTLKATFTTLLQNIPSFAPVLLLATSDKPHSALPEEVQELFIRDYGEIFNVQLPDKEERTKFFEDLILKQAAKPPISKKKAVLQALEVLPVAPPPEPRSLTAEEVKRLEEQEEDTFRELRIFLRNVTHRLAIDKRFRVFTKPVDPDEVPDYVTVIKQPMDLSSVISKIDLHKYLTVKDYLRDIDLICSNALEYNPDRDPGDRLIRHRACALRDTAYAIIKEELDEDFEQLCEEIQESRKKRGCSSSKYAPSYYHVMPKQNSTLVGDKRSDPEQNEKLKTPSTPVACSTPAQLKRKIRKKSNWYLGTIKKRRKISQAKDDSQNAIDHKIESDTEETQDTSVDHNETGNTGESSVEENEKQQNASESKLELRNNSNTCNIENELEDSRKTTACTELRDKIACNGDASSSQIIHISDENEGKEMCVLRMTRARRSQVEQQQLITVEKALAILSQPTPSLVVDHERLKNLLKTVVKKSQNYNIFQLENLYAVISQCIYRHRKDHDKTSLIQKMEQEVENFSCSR
Assay: Inhibition of His-6 tagged recombinant human ATAD2 (981 to 1108 residues) expressed in Escherichia coli BL21 (DE3) rosetta cells by HTRF assay

Row | IC50 | SMILES
1 | 55 µM | Cn1ccc(NCc2ccccn2)c(N)c1=O
2 | 822 µM | CN1CCNc2c1ccn(C)c2=O
3 | 377 µM | Cn1cc(Br)cc(N)c1=O

Row | SMILES | IC50
4 | Cn1cccc(NCC2CCNCC2)c1=O | 543 µM
